The text below walks through data of patent publication US6787566B2, “Breakers of advanced glycation endproducts” (City of Hope, priority 1999, dated 2004).

What all share (assay type): biochemical
For test [1], the target named is T1, cross-linked collagen-AGE-BSA (Rattus norvegicus, UniProt P02454+P02466).
T1 construct: purchased Biocoat (Collaborative Research, Bedford, Mass.) for the collagen-coated plates; Sigma Chemical co. for bovine serum albumin
The test can be described thus: AGE-BSA-collagen ELISA: cleavage of glycated BSA cross-linked to collagen. To be noted: for AGE-breaking activity (cleavage of cross-linked collagen-AGE-BSA), in words: 0.1-10 mM final concentration, FIGS. 1A and 1C; for Concentration dependence of AGE-BSA-collagen crosslink breaking, in words: FIGS. 1A-C; for Overall AGE-breaking property, in words: overall judgement of the patent's tests. The method, then: In vitro evaluation of the ability of the AGE-breaker compounds to cleave and break cross-linking of glycated BSA (AGE-BSA) (prepared as described (Rahbar et al., 1999)) to the rat-tail-tendon-collagen was by a special ELISA (Vasan et al., 1996). The rat-tail-tendon-collagen coated plates were first blocked first with 300 μL of Superblock blocking buffer (Pierce Chemicals, Rockford, Ill.) for one hour. The blocking solution was removed from the wells by washing the plates twice with PBS-0.05% Tween 20 (PBS-T) using a Dynatech ELISA-plate washer. Cross-linking of various concentrations of AGE-BSA (0, 0.01, 0.05, 0.1, 0.25, 0.50, and 1.0 μg per well) to rat-tail-collagen coated plates was performed without the testing compound, and the plates were incubated for 5 hours at 37° C. After washing the wells three times with PBS-T to remove the unattached AGE-BSA, test concentrations of the compound (50 μL/well) dissolved in PBS were added to wells in triplicate and incubation continued at 37° C. overnight. After washing with PBS-T, the amount of BSA remaining attached to the tail collagen plate was then quantified by addition of rabbit anti-BSA polyclonal antibodies (50 μL/well) for 1 hour at 37° C. The wells were then washed three times with PBS-T and developed with the chromogenic substrate ABTS (100 μL/well). Absorbance was measured at 410 nm in microplate reader (BioRad, Hercules, Calif.).
The percentage breaking activity is calculated by the following formula: 100×[(A410, PBS control)−(A410, AGE-breaker compound)]/[A410, PBS control].

Test [2] has as its target T2, AGE cross-links in tail tendon collagen of diabetic rats (Rattus norvegicus, UniProt P02454+P02466).
T2 construct: collagen was isolated from the tail tendon of diabetic and normal controls; from tissue; host or cells: tail tendon of streptozotocin-diabetic male Sprague-Dawley rats
The test can be described thus: Tendon collagen solubility in weak acid after in vitro treatment. The settings on record: for Acid Solubility Test (% increase in solubility): relative to untreated collagen of diabetic rats. How it is done: For this study, diabetes was first induced in male Sprague-Dawley rats (Charles River, Wilmington, Mass.) weighing about 150-175 g by injection of streptozotocin (65 mg/kg, i.p.). […] Tail tendons were dissected free of adhering tissues, washed thoroughly in PBS containing protease inhibitors (1 mM each of EDTA, PMSF, iodoacetamide and benzamidine hydrochloride), patted dry onto a paper towel, rolled into a ball, freeze dried, and stored at −20° C. in sealed containers until used.
Representative samples of tail tendon collagen were pulled from its bulk and were cut approximately 20-25 mm in size. The samples were then placed inside 1.5 mL microfuge tubes and suspended with 1 mL of the desired concentration of the AGE-breaker compound in PBS buffer (pH 7.4) containing 0.02 g/L NaN3. Untreated control tubes include tail tendon collagen and PBS buffer only. The tubes were incubated at 37° C. for 24 hours. After incubation, the tubes were centrifuged at 10,000 rpm and the supernatants discarded. The collagen samples were rinsed with PBS, vortexed thoroughly, centrifuged briefly, and the supernatant discarded. This rinsing was repeated twice. On final rinse, the supernatant was discarded and the tubes inverted for one minute for the samples to air dry. These collagen samples were used immediately in the acid solubility and digestion studies.
For determination of the amount of acid-insoluble collagen in samples treated and untreated with the AGE-breaker compound, 5 mg aliquots of dried tail-tendon collagen from diabetic and non-diabetic rats, all in duplicates, were added to 2 mL of 0.05 M acetic acid and stirred at 4° C. for 24 hours. The mixture was homogenized in a polytron homogenizer and stirred for an additional 24 hours at 4° C. The suspension was then centrifuged at 9000×g for 60 minutes at 4° C. The collagen in the clear supernatant was defined as the acid soluble collagen, and the gel-like pellet as the acid insoluble collagen.

Test [3] has as its target T2, AGE cross-links in tail tendon collagen of diabetic rats. The test can be described thus: Papain digestibility assay, collagen-linked fluorescence. The settings on record: for Papain digestion Assay (% decrease in fluorescence): relative to untreated collagen of diabetic rats. How it is done:
For this study, diabetes was first induced in male Sprague-Dawley rats (Charles River, Wilmington, Mass.) weighing about 150-175 g by injection of streptozotocin (65 mg/kg, i.p.). […] Thirty-two weeks later, the rats are sacrificed and collagen was isolated from the tail tendon of diabetic and normal controls as described by Kochakian et al. (1996). Tail tendons were dissected free of adhering tissues, washed thoroughly in PBS containing protease inhibitors (1 mM each of EDTA, PMSF, iodoacetamide and benzamidine hydrochloride), patted dry onto a paper towel, rolled into a ball, freeze dried, and stored at -20° C. in sealed containers until used. Representative samples of tail tendon collagen were pulled from its bulk and were cut approximately 20-25 mm in size. […] Untreated control tubes include tail tendon collagen and PBS buffer only. The tubes were incubated at 37° C. for 24 hours. After incubation, the tubes were centrifuged at 10,000 rpm and the supernatants discarded. The collagen samples were rinsed with PBS, vortexed thoroughly, centrifuged briefly, and the supernatant discarded. This rinsing was repeated twice. On final rinse, the supernatant was discarded and the tubes inverted for one minute for the samples to air dry. These collagen samples were used immediately in the acid solubility and digestion studies. […] Digests were centrifuged at 10,000 rpm for 60 minutes at 4° C., and the supernatant separated from the pellet. […] Aliquots of the supernatant digests were also subjected to acid hydrolysis followed by hydroxyproline measurements. The results were expressed as fluorescence units per micromole of hydroxyproline content of each sample. Percent decrease in fluorescence was calculated as above. […] The tubes were autoclaved in a steam sterilizer at 250° F. for 3.5 hours. The samples were taken to dryness using a Savant Speed Vac concentrator with heat, and stored at 4° C. until assayed. The dried samples were rehydrated with 200 μL deionized water, and aliquots were assayed for their hydroxyproline content in a 96-well microtiter plate as described by […] et al. (1997).

Test [4] has the same target. Put plainly: Total pepsin digestion assay, collagen-linked fluorescence. The settings on record: for Pepsin Digestion Assay (% decrease in fluorescence): relative to untreated collagen of diabetic rats. How it is done:
For this study, diabetes was first induced in male Sprague-Dawley rats (Charles River, Wilmington, Mass.) weighing about 150-175 g by injection of streptozotocin (65 mg/kg, i.p.). […] Thirty-two weeks later, the rats are sacrificed and collagen was isolated from the tail tendon of diabetic and normal controls as described by Kochakian et al. (1996). Tail tendons were dissected free of adhering tissues, washed thoroughly in PBS containing protease inhibitors (1 mM each of EDTA, PMSF, iodoacetamide and benzamidine hydrochloride), patted dry onto a paper towel, rolled into a ball, freeze dried, and stored at -20° C. in sealed containers until used. Representative samples of tail tendon collagen were pulled from its bulk and were cut approximately 20-25 mm in size. […] Untreated control tubes include tail tendon collagen and PBS buffer only. The tubes were incubated at 37° C. for 24 hours. After incubation, the tubes were centrifuged at 10,000 rpm and the supernatants discarded. The collagen samples were rinsed with PBS, vortexed thoroughly, centrifuged briefly, and the supernatant discarded. This rinsing was repeated twice. On final rinse, the supernatant was discarded and the tubes inverted for one minute for the samples to air dry. These collagen samples were used immediately in the acid solubility and digestion studies. […] The clear supernatant containing digested collagen was collected and used for collagen-linked fluorescence. […] Fluorescence of the samples was quantified at 365 nm excitation and 418 nm emission. All fluorescence values were corrected for fluorescence of the pepsin in phosphate buffer and expressed as arbitrary units per micromoles of hydroxyproline content of the collagen sample. The hydroxyproline content of each collagen sample was measured following acid hydrolysis, using a microassay method as described ([…] et al., 1997). […] The tubes were autoclaved in a steam sterilizer at 250° F. for 3.5 hours. The samples were taken to dryness using a Savant Speed Vac concentrator with heat, and stored at 4° C. until assayed. The dried samples were rehydrated with 200 μL deionized water, and aliquots were assayed for their hydroxyproline content in a 96-well microtiter plate as described by […] et al. (1997).

Entries after “also recorded” stand apart in the source; their conditions may differ.

T1 sequence (P02454 152-1207 limits assumed): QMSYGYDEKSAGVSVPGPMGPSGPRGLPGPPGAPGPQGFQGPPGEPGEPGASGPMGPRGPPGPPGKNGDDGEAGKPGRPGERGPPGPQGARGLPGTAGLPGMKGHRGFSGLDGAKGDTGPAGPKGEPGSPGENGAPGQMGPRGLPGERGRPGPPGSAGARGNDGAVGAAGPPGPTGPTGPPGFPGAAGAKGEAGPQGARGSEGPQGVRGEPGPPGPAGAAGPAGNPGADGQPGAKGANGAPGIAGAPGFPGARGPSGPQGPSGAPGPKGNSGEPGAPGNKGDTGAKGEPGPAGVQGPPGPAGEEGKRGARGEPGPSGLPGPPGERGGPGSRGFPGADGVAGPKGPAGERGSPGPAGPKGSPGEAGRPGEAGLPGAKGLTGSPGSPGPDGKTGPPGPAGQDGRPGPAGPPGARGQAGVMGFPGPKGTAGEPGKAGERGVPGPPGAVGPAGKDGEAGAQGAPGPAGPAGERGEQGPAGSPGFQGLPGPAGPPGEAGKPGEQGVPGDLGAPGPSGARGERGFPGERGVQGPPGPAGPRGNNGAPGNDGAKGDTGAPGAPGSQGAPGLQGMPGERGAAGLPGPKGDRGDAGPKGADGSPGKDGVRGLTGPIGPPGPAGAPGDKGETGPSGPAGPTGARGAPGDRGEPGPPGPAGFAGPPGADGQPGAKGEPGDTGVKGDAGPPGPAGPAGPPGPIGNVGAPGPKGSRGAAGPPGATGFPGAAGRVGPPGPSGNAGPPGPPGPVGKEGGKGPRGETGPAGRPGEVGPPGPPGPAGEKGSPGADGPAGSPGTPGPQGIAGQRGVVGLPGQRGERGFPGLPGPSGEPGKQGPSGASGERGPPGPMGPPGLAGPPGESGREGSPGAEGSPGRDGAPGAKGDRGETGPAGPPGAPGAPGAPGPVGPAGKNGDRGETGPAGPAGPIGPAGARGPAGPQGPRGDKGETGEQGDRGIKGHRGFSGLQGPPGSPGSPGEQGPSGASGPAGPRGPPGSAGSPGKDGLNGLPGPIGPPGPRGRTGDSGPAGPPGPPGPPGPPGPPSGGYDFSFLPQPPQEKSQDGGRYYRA
T1 sequence (P02466 86-1125 limits assumed): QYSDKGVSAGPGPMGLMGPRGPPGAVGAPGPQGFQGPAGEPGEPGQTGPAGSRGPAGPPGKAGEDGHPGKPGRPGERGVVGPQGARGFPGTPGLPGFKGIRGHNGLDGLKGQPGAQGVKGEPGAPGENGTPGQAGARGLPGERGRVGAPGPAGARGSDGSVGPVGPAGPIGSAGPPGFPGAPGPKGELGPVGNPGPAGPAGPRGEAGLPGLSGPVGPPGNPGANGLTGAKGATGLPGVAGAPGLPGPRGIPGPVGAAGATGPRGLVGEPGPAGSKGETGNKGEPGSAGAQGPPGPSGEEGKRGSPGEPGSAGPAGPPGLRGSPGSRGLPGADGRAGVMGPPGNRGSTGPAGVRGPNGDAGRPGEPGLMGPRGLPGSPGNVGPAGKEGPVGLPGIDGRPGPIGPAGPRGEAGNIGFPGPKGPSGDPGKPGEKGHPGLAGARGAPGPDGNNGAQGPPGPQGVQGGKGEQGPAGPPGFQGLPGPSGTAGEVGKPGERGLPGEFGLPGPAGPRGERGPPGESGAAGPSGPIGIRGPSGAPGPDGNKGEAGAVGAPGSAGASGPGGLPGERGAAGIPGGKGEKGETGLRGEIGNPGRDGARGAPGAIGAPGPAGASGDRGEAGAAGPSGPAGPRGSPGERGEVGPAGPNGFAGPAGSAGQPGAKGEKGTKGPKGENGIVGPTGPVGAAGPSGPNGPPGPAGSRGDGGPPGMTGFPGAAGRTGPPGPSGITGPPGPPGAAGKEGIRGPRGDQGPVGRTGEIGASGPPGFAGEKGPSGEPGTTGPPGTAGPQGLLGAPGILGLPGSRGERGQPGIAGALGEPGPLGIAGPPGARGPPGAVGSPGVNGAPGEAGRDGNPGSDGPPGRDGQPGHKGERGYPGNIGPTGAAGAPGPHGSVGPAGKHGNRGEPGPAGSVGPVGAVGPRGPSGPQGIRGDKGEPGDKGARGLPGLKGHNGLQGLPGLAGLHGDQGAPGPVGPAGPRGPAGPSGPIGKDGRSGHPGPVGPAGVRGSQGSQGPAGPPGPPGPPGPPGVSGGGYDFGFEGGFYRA
T2 sequence (P02454 152-1207 limits assumed): as the sequence (P02454 152-1207 limits assumed) above
T2 sequence (P02466 86-1125 limits assumed): as the sequence (P02466 86-1125 limits assumed) above

Take “4-[(3,5-dichlorophenylureidophenoxyisobutyryl]-4-aminobenzoic acid [LR99]”: in test [1], the “AGE-breaking activity (cleavage of cross-linked collagen-AGE-BSA), in words” value (“AGE-breaking activity” below) is “very effective AGE-breakers”. Moreover, the “Acid Solubility Test (% increase in solubility)” value in test [2] (0.1 mM) was 1.6%; in test [2] (1.0 mM) it was 7.3%; in test [2] (10 mM), 16.0%. Also, the “Papain digestion Assay (% decrease in fluorescence)” value in test [3] (0.1 mM) is on record as 23.5%; in test [3] (1.0 mM), 35.9%; in test [3] (10 mM) it was 63.6%. Further, the “Pepsin Digestion Assay (% decrease in fluorescence)” value in test [4] (0.1 mM) was determined as 9.8%; in test [4] (1.0 mM), 16.1%; in test [4] (10 mM), 12.6%.

With `CC(C)(Oc1ccc(NC(=O)Nc2cc(Cl)cc(Cl)c2)cc1)C(=O)NC1(C(=O)O)CCCCC1` [LR23, 4-(3,5-dichlorophenylureido)phenoxyisobutyryl-1-amidocyclohexane-1-carboxylic acid], the “AGE-breaking activity” value in test [1] is “very effective AGE-breakers”. Further, the “Concentration dependence of AGE-BSA-collagen crosslink breaking, in words” value (“Concentration dependence” for short) in test [1] was “more effective breakers at higher concentrations”. In addition, in test [1], the “Overall AGE-breaking property, in words” value was “most effective AGE-breakers”. The “Acid Solubility Test (% increase in solubility)” value was found to be 18.3% in test [2] (0.1 mM), 19.4% in test [2] (1.0 mM) and 32.7% in test [2] (10 mM). Further, the “Collagen solubility in weak acid, in words” value in test [2] (collagen of diabetic rats, P<0.05 for LR23, FIG. 2B) was “significantly increased solubility”. In addition, the “Papain digestion Assay (% decrease in fluorescence)” value in test [3] (0.1 mM) worked out at 16.7%; in test [3] (1.0 mM), 25.9%; in test [3] (10 mM), 47.2%. For the same molecule, in test [3] (collagen of diabetic rats, P<0.05 for LR23, FIG. 4B), the “AGE-linked fluorescence of collagen after papain digestion, in words” value was “reduced the AGE-linked fluorescence”. The figures for the “Pepsin Digestion Assay (% decrease in fluorescence)” value in test [4] (0.1 mM), in test [4] (1.0 mM) and in test [4] (10 mM) were 7.3%, 15.5% and 18.7%, respectively. Further, the “AGE-linked fluorescence of collagen after pepsin digestion, in words” value in test [4] (collagen of diabetic rats, P<0.05 for LR23, FIG. 3B) is reported as “reduced the AGE-linked fluorescence”.

With `CN(C)C(=N)NC(=N)N` [Metformin, 1,1-dimethylbiguanide, reference compound], in test [1], the “Concentration dependence” value was “more potent at lower concentrations; also recorded: highly effective at low concentrations” and the “Overall AGE-breaking property, in words” value is on record as “moderate AGE-breaking properties”. Moreover, the “Overall AGE-breaking property, in words” value in test [1] (listed as metformin) is recorded as “moderate AGE-breaker”.

Turning to “L-bis-[4-(4-chlorobenzamidophenoxyisobutyryl)cystine] [LR20]”, the “AGE-breaking activity” value in test [1] is “very effective AGE-breakers”. Further, the “Concentration dependence” value in test [1] is “more effective breakers at higher concentrations”. For the same molecule, the “Acid Solubility Test (% increase in solubility)” value in test [2] (0.1 mM) is reported as 1.5%; in test [2] (1.0 mM), 7.3%; in test [2] (10 mM), 24.0%. Further, the “Papain digestion Assay (% decrease in fluorescence)” value was 18.3% in test [3] (0.1 mM), 18.4% in test [3] (1.0 mM) and 24.3% in test [3] (10 mM). Besides, the “Pepsin Digestion Assay (% decrease in fluorescence)” value in test [4] (0.1 mM) was found to be 7.1%; in test [4] (1.0 mM), 8.9%; in test [4] (10 mM), 27.8%.
